Test results as given in PMC2001498, “Effects of transplantation and resection of a radiation-induced rat insulinoma on glucose homeostasis and the endocrine pancreas” (British Journal of Cancer, 1986).
Structures can show the parent of a compound that is named as a salt.

Tested on: pancreatic B cell function
Assay: Plasma insulin response to intraperitoneal arginine after tumour resection
Details: plasma insulin at 0, 30 and 60 min, groups of 6 rats

## N=C(N)NCCC[C@H](N)C(=O)O [arginine, arginine hydrochloride]
Arginine hydrochloride 2 g kg-1 i.p. in 0.9% NaCl, ex-tumour bearing rats 1 day after resection
  plasma insulin response to arginine, 1 day after tumour resection: failed to evoke a plasma insulin response
Arginine hydrochloride 2 g kg-1 i.p., ex-tumour bearing rats 12 days after resection
  insulin response to arginine, 12 days after tumour resection: impaired
